According to US10189791B2, “Pyridyl analogs of 1-(2-cyano-3,12-dioxooleana-1,9(11)dien-28-oyl) imidazole” (Trustees of Dartmouth College, priority 2014, dated 2019):
Like-named read-outs stand apart in the source and are kept apart here.

Experiments:
[1] = test system: HO-1; assay: Induction of HO-1 mRNA in mouse liver, kidney and lung (real-time PCR); type: in vivo, mice; conditions: for HO-1 level relative to CDDO-Im / HO-1 mRNA fold induction compared to the vehicle control: liver; for HO-1 mRNA fold induction compared to the vehicle control: six hours after gavage with 1 μmole; for HO-1 induction (in words): kidney
From the text: (§1) FIG. 2A and FIG. 2B show the induction of cytoprotective enzyme expression in mouse liver, kidney and lung. CB57BL/6 mice were gavaged with 1 μmole of each triterpenoid. Six hours later, organs were harvested, RNA was extracted, and mRNA levels for HO-1 (FIG. 2A) and NQO1 (FIG. 2B) were quantified by real-time PCR analysis. Results are presented as the fold induction for each compound compared to the vehicle (DMSO) control. Data are presented as mean±SE of six mice per group.
Synthetic triterpenoids such as CDDO-Im strongly activate the Nrf2/ARE pathway; Nrf2 is a transcription factor that regulates numerous cytoprotective and anti-inflammatory genes (Liby, et al. (2005) Cancer Res. 65:4789-98; Yates, et al. (2007) Mol. Cancer Therapeut. 6:154-62). Therefore, the ability of the new pyridine compounds to induce transcription of the Nrf2 target genes HO-1 and NQ01 in vivo was assessed. […] In the liver, CDDO-3P-Im and CDDO-2P-Im induced high levels of HO-1, which were about 3 times more elevated than with CDDO-Im (13.4- and 15.2-fold, respectively vs. 4.9-fold for CDDO-Im). […] The results obtained in lungs were, on the other hand, unexpected.

[2] = test system: U937 leukemia cell line; assay: U937 monocytic differentiation assay (CD11b surface marker, flow cytometry); type: cell-based; conditions: for activity to induce differentiation of U937 cells (in words): 4 days
Experimental: CDDO-Im 1 is a potent inducer of differentiation in U937 cells (Place, et al. (2003) Clin. Cancer Res. 9:2798-2806). Therefore, the activity of the CDDO-Im analogs was evaluated using the U937 leukemia cell line. CD11b (also known as Mac-1α or CR3 complement receptor) was used as a surface marker of monocytic differentiation, and its expression was measured by flow cytometry after 4 days of treatment with CDDO-Phenyl-Im 2, CDDO-3P-Im 3, CDDO-2P-Im 4, CDDO-4P-Im 5, CDDO-Im 1 (as positive control) or vehicle (DMSO). […] Indeed, the highest level of differentiation was obtained using 100 nM of CDDO-2P-Im (approximately a 4-fold induction of CD11b).

[3] = test system: RA W264.7 macrophage-like cells; assay: Inhibition of IFNγ-stimulated nitric oxide release (Griess reaction); type: cell-based; conditions: 10 ng/ml IFNγ, 24 hour exposure, read-out: IC50 (nM) Mean ± SE, NO production
Experimental: Because oxidative and inflammatory stress contribute to carcinogenesis (Albini & Sporn (2007) Nature Rev. Cancer 7:139-147), it was determined whether the pyridine analogues could block de novo synthesis of inducible nitric oxide synthase (iNOS), a critical enzyme involved in the inflammatory response (Kroncke, et al. (1998) Clin. Exp. Immunol. 113:147-156; Zamora, et al. (2000) Mol. Med. 6:347-373). Nitric oxide release was determined in RA W264.7 macrophage-like cells, after stimulation with 10 ng/ml interferon-γ (IFNγ) and a 24 hour-exposure to each compound at 0.625, 1.3, 2.5, 5, 10 and 20 nM. NO release was measured by Griess reaction and compared to CDDO-Im, which is a potent suppressor of iNOS (Place, et al. (2003) Clin. Cancer Res. […]:2798-2806).

[4] = Tissue distribution after single gavage in C57BL/6 mice (LC-MS); type: in vivo; conditions: for bioavailability / drug levels in organs (in words): compared with CDDO-Im 1; for Compound Concentration Mean ± SE, Kidney / Compound Concentration Mean ± SE, Liver / Compound Concentration Mean ± SE, Lungs / Compound Concentration Mean ± SE, Pancreas / Compound Concentration Mean ± SE, Plasma / Compound Concentration Mean ± SE, Whole Blood: six hours after single gavage with 1 μmole
Experimental: To determine concentrations of the CDDO-Im analogs in various organs, an in vivo evaluation was conducted in C57BL/6 mice. Six hours after a single gavage with 1 μmole of compound, the mice were sacrificed and the tissues were collected.

[5] = Stability in human plasma at 37° C. (LC-MS); type: in vitro ADME; conditions: for percent of starting material remaining in plasma: after a 1-hour incubation; for stability in human plasma (in words): up to 6 hours
Experimental: Since CDDO-Im is not stable in human plasma, the stability of the CDDO-Im analogs was determined. Compounds were incubated in human plasma at 37° C. for up to 6 hours. The compounds were extracted with acetonitrile at six different time points (0, 0.5, 1, 2, 4 and 6 hours), centrifuged, and the percent of starting material remaining in the supernatant was measured by liquid chromatography-mass spectrometry (LC-MS). […] The concentrations then decreased gradually over 6 hours. […] Unexpectedly, the CDDO-Im analogs are metabolized differently from CCDO-Im, as no traces of CDDO were detected with any of the other compounds at any time point. Instead, an oxidized derivative was detected on the chromatogram, in the form of an adduct on the molecule of +16 in MW (N-oxide).

[6] = test system: U937 cells; assay: Apoptosis in U937 cells (annexin V staining); type: cell-based; conditions: U937 cells treated for 48 hours
[7] = test system: NQO1; assay: Induction of NQO1 mRNA in mouse liver, kidney and lung (real-time PCR); type: in vivo, mice
From the text: as §1
Because HO-1 is regulated by transcription factors in addition to Nrf2 (Alam, et al. (1999) J. Biol. Chem. 274:26071-8; Kensler, et al. (2007) Ann. Rev. Pharmacol. Toxicol. 47:89-116), induction of the prototypical Nrf2 target gene NQO1 was also examined.

[8] = 30 nM, compared with CDDO-Im and CDDO-3P-Im
[9] = six hours after gavage with 1 μmole
[10] = six hours after gavage with 1 μmole, read-out: concentration in the pancreas
[11] = 30 nM, 4 days of treatment, U937 cells

| SMILES | HO-1 level relative to CDDO-Im ([1]; six hours after gavage) | HO-1 mRNA fold induction compared to the vehicle control [1] [fold] | activity to induce differentiation of U937 cells (in words) [2, 8] | activity to induce differentiation of U937 cells (in words) ([2]; 100 nM) | IC50 [3] [nM] | bioavailability / drug levels in organs (in words) [4] | concentration in the liver [4, 9] [nM] | drug levels in the lungs [4, 9] | concentration at 6 h [4, 10] [nM] | Compound Concentration Mean ± SE, Kidney [4] [µmol/kg] | Compound Concentration Mean ± SE, Liver [4] [µmol/kg] | Compound Concentration Mean ± SE, Lungs [4] [µmol/kg] | Compound Concentration Mean ± SE, Pancreas [4] [µmol/kg] | Compound Concentration Mean ± SE, Plasma [4] [µmol/kg] | Compound Concentration Mean ± SE, Whole Blood [4] [µmol/kg] | percent of starting material remaining in plasma ([5]; 37° C.) | stability in human plasma (in words) ([5]; 37° C.) | annexin V staining, a marker of early apoptosis [6] | induction of CD11b expression compared to the DMSO-treated cells [2, 11] [fold] | cell death in the differentiation assay ([2]; 100 nM) | further results |
| --- | --- | --- | --- | --- | --- | --- | --- | --- | --- | --- | --- | --- | --- | --- | --- | --- | --- | --- | --- | --- | --- |
| CC1(C)CCC2(C(=O)n3cnc(-c4ccccn4)c3)CCC3(C)C(C(=O)C=C4C5(C)C=C(C#N)C(=O)C(C)(C)C5CCC43C)C2C1 (stereo not drawn) [CDDO-2P-Im 4] | about 3 times | 15.2 | less active | enhanced the activity | 5.8 ± 1.1 | better than for CDDO-Im 1 | 12000 to 15000 | greater than 2.5 μM | 3500 | 3.70 ± 0.55 | 14.9 ± 2.58 | 2.63 ± 0.41 | 3.55 ± 0.39 | 0.52 ± 0.02 | 0.53 ± 0.02 | more than 85% | the most stable analog | – | – | – | induction of CD11b ([2]; 100 nM, 4 days of treatment, U937 cells): ~4 fold; percent left in plasma ([5]; after 4 hours, 37° C.): more than 50% |
| CC1(C)CCC2(C(=O)n3cnc(-c4cccnc4)c3)CCC3(C)C(C(=O)C=C4C5(C)C=C(C#N)C(=O)C(C)(C)C5CCC43C)C2C1 (stereo not drawn) [CDDO-3P-Im 3] | about 3 times | 13.4 | – | – | 4.3 | better than for CDDO-Im 1 | – | greater than 2.5 μM | 2500 | 1.47 ± 0.24 | 5.9 ± 0.57 | 2.49 ± 0.44 | 2.52 ± 0.24 | 0.15 ± 0.04 | 0.16 ± 0.02 | – | more stable than CDDO-Im | increased annexin V staining | ~3 | induced cell death | – |
| CC1(C)CCC2(C(=O)n3cnc(-c4ccncc4)c3)CCC3(C)C(C(=O)C=C4C5(C)C=C(C#N)C(=O)C(C)(C)C5CCC43C)C2C1 (stereo not drawn) [CDDO-4P-Im 5] | – | – | less active | enhanced the activity | 9 ± 0.6 | – | – | – | – | 0.35 ± 0.06 | 2.8 ± 0.47 | 0.17 ± 0.05 | 0.30 ± 0.04 | 0.03 ± 0.01 | 0.04 ± 0.1 | 42% | more stable than CDDO-Im | – | – | – | HO-1 induction (in words) [1]: less potent than CDDO-Im; HO-1 transcript level relative to CDDO-Im or any of the other compounds ([1]; lungs, six hours after gavage): about 3 times |
| CC1(C)CCC2(C(=O)n3ccnc3)CCC3(C)C(C(=O)C=C4C5(C)C=C(C#N)C(=O)C(C)(C)C5CCC43C)C2C1 (stereo not drawn) [CDDO-Im 1, 1-(2-cyano-3,12-dioxooleana-1,9(11)-dien-28-oyl) imidazole, reference compound] | – | – | – | – | – | – | – | – | – | 0.24 ± 0.08 | 1.7 ± 0.32 | 0.19 ± 0.05 | 0.31 ± 0.09 | 0.06 ± 0.02 | 0.03 ± 0.01 | – | rapidly metabolized | increased annexin V staining | ~3 | induced cell death | IC50 ([3]; Mus musculus, RAW264.7): 2 nM; concentration at 6 h ([4]; C57BL/6, mouse, liver, oral, six hours after gavage with 1 μmole, read-out: concentration in the liver): 1700 nM; concentration at 6 h ([4]; C57BL/6, mouse, lung, oral, six hours after gavage with 1 μmole, read-out: drug levels in the lungs): 200 nM; concentration at 6 h ([4]; C57BL/6, mouse, pancreas, oral, six hours after gavage with 1 μmole, read-out: concentration in the pancreas): ~300 nM; rank of NQO1 mRNA induction (in words) ([7]; liver and kidney): the most potent compound; transformation product in human plasma (in words) ([5]; LC-MS, all time points): essentially converted to its parent molecule; percent of compound lost in human plasma ([5]; within 30 minutes, 37° C.): more than 88%; percent of compound lost in human plasma ([5]; within the next 5 hours (6 hour incubation), 37° C.): 98% |
| CC1(C)CCC2(C(=O)n3cnc(-c4ccccc4)c3)CCC3(C)C(C(=O)C=C4C5(C)C=C(C#N)C(=O)C(C)(C)C5CCC43C)C2C1 (stereo not drawn) [CDDO-Phenyl-Im 2] | – | – | less active | – | 14.7 | better than for CDDO-Im 1 | 12000 to 15000 | – | 2000 | 5.79 ± 0.25 | 12.2 ± 1.27 | 1.28 ± 0.17 | 1.97 ± 0.19 | 0.12 ± 0.01 | 0.35 ± 0.03 | – | more stable than CDDO-Im | – | – | – | HO-1 induction (in words) [1]: markedly less potent; concentration in kidneys [4, 9]: 5800 nM; NQO1 mRNA induction (in words) ([7]; liver, compared with CDDO-Im): markedly less potent than CDDO-Im |
